This note sets out measurements from US20090111798A1, “5,6-DIHYDRO-1H-PYRIDIN-2-ONE COMPOUNDS” (priority 2006, published 2009).

pIC50: −log10 of the molar value. Counter-ions that a name gives are not always drawn.

Broadly, the pIC50 is the negative decadic logarithm of the IC50, by convention in mol/L. Low readings indicate a large IC50, high ones a small IC50.

The assay has as its target NS5B polymerase (Hepatitis C virus genotype 1b, UniProt P26663). Briefly: biochemical. To be noted: NS5B polymerase inhibition; 20 nM enzyme, 75 min at 28° C. The method, then: Compounds were tested for HCV polymerase inhibition. Assays were performed in a 96-well streptavidin-coated FlashPlate using 20 nM enzyme, 0.5μ Ci of [α-^33P]GTP, 0.6 μM GTP, and 250 nM 5′biotinylated oligo (rG13)/poly rC in 20 mM Tris-HCl, pH 7.5, 5 mM MgCl2, 5 mM dithiothreitol, 0.1 g/L bovine serum albumin, and 100 U/mL RNAse inhibitor. The reaction was stopped by aspiration after 75 min at 28° C. and the plate was washed several times. After washing and drying the plate, incorporated radioactivity was counted using a Microbeta scintillation counter. IC50 values were calculated relative to the uninhibited control and inhibition data were fitted to a 4-parameter IC50 equation.

NS5B polymerase, sequence (P26663 2420-3010): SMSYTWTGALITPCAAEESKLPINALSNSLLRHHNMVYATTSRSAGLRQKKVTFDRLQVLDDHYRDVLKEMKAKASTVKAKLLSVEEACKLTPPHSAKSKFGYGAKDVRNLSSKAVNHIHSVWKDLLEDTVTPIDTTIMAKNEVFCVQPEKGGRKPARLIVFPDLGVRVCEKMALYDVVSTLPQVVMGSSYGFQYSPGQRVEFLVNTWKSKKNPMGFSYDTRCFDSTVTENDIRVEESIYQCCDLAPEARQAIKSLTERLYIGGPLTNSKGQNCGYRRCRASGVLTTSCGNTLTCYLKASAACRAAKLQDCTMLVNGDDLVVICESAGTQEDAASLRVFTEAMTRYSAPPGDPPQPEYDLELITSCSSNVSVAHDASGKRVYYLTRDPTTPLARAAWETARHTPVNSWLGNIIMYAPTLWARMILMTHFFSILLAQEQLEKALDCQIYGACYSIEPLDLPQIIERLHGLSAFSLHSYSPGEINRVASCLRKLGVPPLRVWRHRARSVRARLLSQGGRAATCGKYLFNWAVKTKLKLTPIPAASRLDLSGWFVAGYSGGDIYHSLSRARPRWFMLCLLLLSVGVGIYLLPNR

`CS(=O)(=O)Nc1ccc2c(c1)S(=O)(=O)N=C(C1=C(O)[C@@H]3CCC[C@@H]3N(NC3CCC3)C1=O)N2` (relative stereo) [Example 41, cis-N-[3-(1-Cyclobutylamino-4-hydroxy-2-oxo-2,4-a,5,6,7,7a-hexahydro-1H-[1]pyrindin-3-yl)-1,1-dioxo-1,4-dihydro-1λ^6-benzo[1,2,4]thiadiazin-7-yl]-methanesulfonamide trifluoroacetic acid salt]: the pIC50 is 7.00 to 7.70.
For `CS(=O)(=O)Nc1ccc2c(c1)S(=O)(=O)N=C(C1=C(O)[C@@H]3CCC[C@@H]3N(C3CCCCC3)C1=O)N2` (relative stereo) [Example 43, cis-N-[3-(1-Cyclohexyl-4-hydroxy-2-oxo-2,4-a,5,6,7,7a-hexahydro-1H-[1]pyrindin-3-yl)-1,1-dioxo-1,4-dihydro-1λ^6-benzo[1,2,4]thiadiazin-7-yl]-methanesulfonamide] the value was 6.00 to 7.00; for `CS(=O)(=O)Nc1ccc2c(c1)S(=O)(=O)N=C(C1=C(O)[C@@H]3CCC[C@@H]3N(CC3CCC3)C1=O)N2` (relative stereo) [Example 47, cis-N-[3-(1-Cyclobutylmethyl-4-hydroxy-2-oxo-2,4-a,5,6,7,7a-hexahydro-1H-[1]pyrindin-3-yl)-1,1-dioxo-1,4-dihydro-1λ^6-benzo[1,2,4]thiadiazin-7-yl]-methanesulfonamide], 7.00 to 7.70.
For `CS(=O)(=O)Nc1ccc2c(c1)S(=O)(=O)N=C(C1=C(O)[C@@H]3CCC[C@@H]3N(c3ccccc3)C1=O)N2` (relative stereo) [Example 48, cis-N-[3-(4-Hydroxy-2-oxo-1-phenyl-2,4-a,5,6,7,7a-hexahydro-1H-[1]pyrindin-3-yl)-1,1-dioxo-1,4-dihydro-1λ^6-benzo[1,2,4]thiadiazin-7-yl]-methanesulfonamide] the value was 4.00 to 6.00; for `CN1C(=O)C(C2=NS(=O)(=O)c3cc(NS(C)(=O)=O)ccc3N2)=C(O)[C@@H]2CCC[C@@H]21` (relative stereo) [Example 53, cis-N-[3-(4-Hydroxy-1-methyl-2-oxo-2,4a,5,6,7,7a-hexahydro-1H-[1]pyrindin-3-yl)-1,1-dioxo-1,4-dihydro-1λ^6-benzo[1,2,4]thiadiazin-7-yl]-methanesulfonamide], 4.00 to 6.00; for `CCN1C(=O)C(C2=NS(=O)(=O)c3cc(NS(C)(=O)=O)ccc3N2)=C(O)[C@@H]2CCC[C@@H]21` (relative stereo) [Example 54, cis-N-[3-(1-Ethyl-4-hydroxy-2-oxo-2,4a,5,6,7,7a-hexahydro-1H-[1]pyrindin-3-yl)-1,1-dioxo-1,4-dihydro-1λ^6-benzo[1,2,4]thiadiazin-7-yl]-methanesulfonamide], 6.00 to 7.00.
In the case of `CC(C)N1C(=O)C(C2=NS(=O)(=O)c3cc(NS(C)(=O)=O)ccc3N2)=C(O)[C@@H]2CCC[C@@H]21` (relative stereo) [Example 55, cis-N-[3-(4-Hydroxy-1-isopropyl-2-oxo-2,4a,5,6,7,7a-hexahydro-1H-[1]pyrindin-3-yl)-1,1-dioxo-1,4-dihydro-1λ^6-benzo[1,2,4]thiadiazin-7-yl]-methanesulfonamide] it was 6.00 to 7.00.
For the compound `CS(=O)(=O)Nc1ccc2c(c1)S(=O)(=O)N=C(C1=C(O)[C@@H]3CCC[C@@H]3N(Cc3ccc(Cl)cc3)C1=O)N2` (relative stereo) [Example 56, cis-N-{3-[1-(4-Chloro-benzyl)-4-hydroxy-2-oxo-2,4a,5,6,7,7a-hexahydro-1H-[1]pyrindin-3-yl]-1,1-dioxo-1,4-dihydro-1λ^6-benzo[1,2,4]thiadiazin-7-yl}-methanesulfonamide], the pIC50 is above 7.70.
Compound `CS(=O)(=O)Nc1ccc2c(c1)S(=O)(=O)C=C(C1=C(O)[C@@H]3CCCCC[C@@H]3N(Cc3ccc(F)cc3)C1=O)N2` (relative stereo) [Example 57, cis-N-{3-[1-(4-Fluoro-benzyl)-4-hydroxy-2-oxo-2,4a,5,6,7,8,9,9a-octahydro-1H-cyclohepta[b]pyridin-3-yl]-1,1-dioxo-1,4-dihydro-1λ^6-benzo[1,4]thiazin-7-yl}-methanesulfonamide] had a pIC50 above 7.70.
`CS(=O)(=O)Nc1ccc2c(c1)S(=O)(=O)N=C(C1=C(O)C3CCCCCC3N(Cc3ccc(F)cc3)C1=O)N2` (stereo not shown) [Example 2, N-{3-[1-(4-Fluoro-benzyl)-4-hydroxy-2-oxo-2,4-a,5,6,7,8,9,9a-octahydro-1H-cyclohepta[b]pyridin-3-yl]-1,1-dioxo-1,4-dihydro-1λ^6-benzo[1,2,4]thiadiazin-7-yl}-methanesulfonamide] gave a negative logarithm of the IC50 (pIC50) of 7.00 to 7.70.
For `CS(=O)(=O)Nc1ccc2c(c1)S(=O)(=O)N=C(C1=C(O)C3CCCCCCC3N(Cc3ccc(F)cc3)C1=O)N2` (stereo not shown) [Example 3, N-{3-[1-(4-Fluoro-benzyl)-4-hydroxy-2-oxo-1,2,4a,5,6,7,8,9,10,10a-decahydro-cycloocta[b]pyridin-3-yl]-1,1-dioxo-1,4-dihydro-1λ^6-benzo[1,2,4]thiadiazin-7-yl]-methanesulfonamide] the value was 6.00 to 7.00.
In the case of `CS(=O)(=O)Nc1ccc2c(c1)S(=O)(=O)N=C(C1=C(O)[C@@H]3CCC[C@@H]3N(Cc3ccc(F)c(Cl)c3)C1=O)N2` [Example 11, (4aR,7aS)—N-{3-[1-(3-Chloro-4-fluoro-benzyl)-4-hydroxy-2-oxo-2,4-a,5,6,7,7a-hexahydro-1H-[1]pyrindin-3-yl]-1,1-dioxo-1,4-dihydro-1λ^6-benzo[1,2,4]thiadiazin-7-yl}-methanesulfonamide] it was above 7.70; in that of `CS(=O)(=O)Nc1ccc2c(c1)S(=O)(=O)N=C(C1=C(O)[C@@H]3CCC[C@@H]3N(Cc3ccc(F)cc3)C1=O)N2` [Example 12, (4aR,7aS)—N-{3-[1-(4-Fluoro-benzyl)-4-hydroxy-2-oxo-2,4-a,5,6,7,7a-hexahydro-1H-[1]pyrindin-3-yl]-1,1-dioxo-1,4-dihydro-1λ^6-benzo[1,2,4]thiadiazin-7-yl}-methanesulfonamide], above 7.70.
`CS(=O)(=O)Nc1ccc2c(c1)S(=O)(=O)N=C(C1=C(O)[C@@H]3CCCC[C@@H]3N(Cc3ccc(F)cc3)C1=O)N2` [Example 13, (4aR,8aS)—N-{3-[1-(4-Fluoro-benzyl)-4-hydroxy-2-oxo-1,2,4a,5,6,7,8,8a-octahydro-quinolin-3-yl]-1,1-dioxo-1,4-dihydro-1λ^6-benzo[1,2,4]thiadiazin-7-yl}-methanesulfonamide] showed a pIC50 of 7.00 to 7.70.
In the case of `CS(=O)(=O)Nc1ccc2c(c1)S(=O)(=O)N=C(C1=C(O)[C@@H]3CCC[C@@H]3N(Cc3ccc(C(F)(F)F)cc3)C1=O)N2` [Example 14, (4aR,7aS)—N-{3-[4-Hydroxy-2-oxo-1-(4-trifluoromethyl-benzyl)-2,4-a,5,6,7,7a-hexahydro-1H-[1]pyrindin-3-yl]-1,1-dioxo-1,4-dihydro-1λ^6 benzo[1,2,4]thiadiazin-7-yl}-methanesulfonamide] it was 6.00 to 7.00; in that of `CS(=O)(=O)Nc1ccc2c(c1)S(=O)(=O)N=C(C1=C(O)[C@@H]3CCC[C@@H]3N(Cc3cccc(C(F)(F)F)c3)C1=O)N2` [Example 15, (4aR,7aS)—N-{3-[4-Hydroxy-2-oxo-1-(3-trifluoromethyl-benzyl)-2,4-a,5,6,7,7a-hexahydro-1H-[1]pyrindin-3-yl]-1,1-dioxo-1,4-dihydro-1λ^6-benzo[1,2,4]thiadiazin-7-yl}-methanesulfonamide], 6.00 to 7.00; in that of `CS(=O)(=O)Nc1ccc2c(c1)S(=O)(=O)N=C(C1=C(O)C3CCC=CC3N(Cc3ccc(F)cc3)C1=O)N2` (stereo not shown) [Example 16, N-{3-[1-(4-Fluoro-benzyl)-4-hydroxy-2-oxo-1,2,4a,5,6,8a-hexahydro-quinolin-3-yl]-1,1-dioxo-1,4-dihydro-1λ^6-benzo[1,2,4]thiadiazin-7-yl}-methanesulfonamide], above 7.70.
In the case of `CC(C)CCN1C(=O)C(C2=NS(=O)(=O)c3cc(NS(C)(=O)=O)ccc3N2)=C(O)C2CCCCC21` (stereo not shown) [Example 20, N-{3-[2-(3-Methylbutyl)-5-hydroxy-3-oxo-2-aza-bicyclo[4.4.0]dec-4-en-4-yl]-1,1-dioxo-1,4-dihydro-1λ^6-benzo[1,2,4]thiadiazin-7-yl}-methanesulfonamide] it was 7.00 to 7.70; in that of `CC(C)(C)CCN1C(=O)C(C2=NS(=O)(=O)c3cc(NS(C)(=O)=O)ccc3N2)=C(O)C2CCCCC21` (stereo not shown) [Example 21, N-{3-[2-(3,3-Dimethylbutyl)-5-hydroxy-3-oxo-2-aza-bicyclo[4.4.0]dec-4-en-4-yl]-1,1-dioxo-1,4-dihydro-1λ^6-benzo[1,2,4]thiadiazin-7-yl}-methanesulfonamide], 7.00 to 7.70; in that of `Cc1cc(CN2C(=O)C(C3=NS(=O)(=O)c4cc(NS(C)(=O)=O)ccc4N3)=C(O)[C@@H]3CCC[C@@H]32)ccc1F` [Example 22, (4aR,7aS)—N-{3-[1-(4-fluoro-3-methyl-benzyl)-4-hydroxy-2-oxo-2,4-a,5,6,7,7a-hexahydro-1H-[1]pyrindin-3-yl]-1,1-dioxo-1,4-dihydro-1λ^6-benzo[1,2,4]thiadiazin-7-yl}-methanesulfonamide], above 7.70.
In the case of `Cc1cccc(CN2C(=O)C(C3=NS(=O)(=O)c4cc(NS(C)(=O)=O)ccc4N3)=C(O)[C@@H]3CCC[C@@H]32)c1` [Example 23, (4aR,7aS)—N-{3-[4-Hydroxy-1-(3-methyl-benzyl)-2-oxo-2,4-a,5,6,7,7a-hexahydro-1H-[1]pyrindin-3-yl]-1,1-dioxo-1,4-dihydro-1λ^6-benzo[1,2,4]thiadiazin-7-yl}-methanesulfonamide] it was above 7.70; in that of `CS(=O)(=O)Nc1ccc2c(c1)S(=O)(=O)N=C(C1=C(O)[C@H]3CCC[C@H]3N(Cc3ccc(F)cc3)C1=O)N2` [Example 26, (4aS,7aR)—N-{3-[1-(4-Fluoro-benzyl)-4-hydroxy-2-oxo-2,4-a,5,6,7,7a-hexahydro-1H-[1]pyrindin-3-yl]-1,1-dioxo-1,4-dihydro-1λ^6-benzo[1,2,4]thiadiazin-7-yl}-methanesulfonamide], 7.00 to 7.70.
